≈ marks a conversion by molar mass, not a printed value. Structures can show the parent of a compound that is named as a salt. Where two headings read alike, the source gives them in different places. Values belong to the compound of their own block, whether it stands above or below them.
Key:
Format in all cases: cell-based
[1] = biological target: T1, P-gp drug efflux activity in HeL023 cells (Homo sapiens, UniProt P08183); assay: Rhodamine 123 efflux assay, HeL023 cells; details: cells expressing P-gp activity
T1 construct: nearly all (100±1%) the cells expressing high level of functional P-gp; endogenous in cells; host or cells: HeL023 human erythroleukemia cells
T1 sequence (P08183 whole entry): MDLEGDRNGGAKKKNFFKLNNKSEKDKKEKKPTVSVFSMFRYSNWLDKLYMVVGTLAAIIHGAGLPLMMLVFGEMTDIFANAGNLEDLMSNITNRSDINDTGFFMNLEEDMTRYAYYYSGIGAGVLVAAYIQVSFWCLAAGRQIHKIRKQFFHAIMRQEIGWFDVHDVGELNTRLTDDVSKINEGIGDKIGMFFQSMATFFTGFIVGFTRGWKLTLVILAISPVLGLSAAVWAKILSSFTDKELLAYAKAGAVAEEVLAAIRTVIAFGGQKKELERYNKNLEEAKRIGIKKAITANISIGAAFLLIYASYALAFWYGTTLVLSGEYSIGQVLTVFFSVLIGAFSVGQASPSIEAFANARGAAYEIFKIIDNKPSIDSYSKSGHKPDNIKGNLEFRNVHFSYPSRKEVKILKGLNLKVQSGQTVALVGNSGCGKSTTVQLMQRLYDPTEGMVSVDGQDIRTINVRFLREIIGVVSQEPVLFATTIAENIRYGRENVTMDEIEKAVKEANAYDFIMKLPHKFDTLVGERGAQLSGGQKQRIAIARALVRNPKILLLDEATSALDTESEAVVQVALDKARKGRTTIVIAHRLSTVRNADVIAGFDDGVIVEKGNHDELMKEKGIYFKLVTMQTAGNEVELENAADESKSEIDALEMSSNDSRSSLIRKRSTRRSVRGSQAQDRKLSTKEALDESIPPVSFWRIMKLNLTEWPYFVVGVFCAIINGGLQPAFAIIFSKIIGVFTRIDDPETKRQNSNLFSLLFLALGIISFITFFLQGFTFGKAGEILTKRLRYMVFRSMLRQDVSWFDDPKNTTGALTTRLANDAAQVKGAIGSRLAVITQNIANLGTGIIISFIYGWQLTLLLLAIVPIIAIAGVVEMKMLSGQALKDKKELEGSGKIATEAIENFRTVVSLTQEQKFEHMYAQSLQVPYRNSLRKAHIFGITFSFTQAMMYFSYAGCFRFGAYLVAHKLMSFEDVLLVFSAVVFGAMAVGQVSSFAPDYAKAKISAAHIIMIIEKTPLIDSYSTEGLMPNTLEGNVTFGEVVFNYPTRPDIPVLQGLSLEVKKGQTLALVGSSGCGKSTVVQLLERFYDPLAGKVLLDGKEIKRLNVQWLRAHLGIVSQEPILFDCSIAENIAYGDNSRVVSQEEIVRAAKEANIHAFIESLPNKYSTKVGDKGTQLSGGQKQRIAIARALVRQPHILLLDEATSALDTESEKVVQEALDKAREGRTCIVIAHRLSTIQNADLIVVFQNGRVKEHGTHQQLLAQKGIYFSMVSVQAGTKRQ
Procedure: 5×10^5 cells from each subline were loaded with 50 ng/ml of rhodamine 123 for 30 minutes at 37° C. in medium. The cells were washed and resuspended in dye-staining agent free medium for 3 hours at 37° C. to allow rhodamine 123 efflux. The cells were then washed twice and the fluorescence of intracellular rhodamine 123 were analysed with Flow cytometer (residual fluorescence FRES). The fluorescence was compared with loaded cells maintained at 4° C. to prevent drug export (maximal fluorescence FMAX). […] Cells from each subline that were not being exposed to rhodamine 123 were used as negative controls.
Rhodamine 123 (Rh123) retention, a P-gp functional assay, was studied in all cell lines. This assay was performed by incubating cells with Rh123 and determining Rh123 accumulation by measuring its fluorescence. The maximum load of Rh123 (FMAX) was quantified at the end of treatment harvesting the cells and storing them at 4° C. to prevent any active Rh123 efflux . The P-gp drug efflux was allowed incubating Rh123-loaded cells in fresh new medium Rh123-free for 3 hours at 37° C. After this incubation, residual fluorescence (FRES) was measured and compared to FMAX.

[2] = tested on: human melanoma A375 cell line; assay: MTT growth inhibitory assay, A375; details: Homo sapiens
[3] = tested on: human colon carcinoma HT29 cell line; assay: MTT growth inhibitory assay, HT29; details: for IC50: HT-29
[4] = tested on: human pancreatic cancer Panc-1; assay: MTT growth inhibitory assay, Panc-1; details: Human Pancreatic Cancer Panc-1; read-out: IC50 growth inhibition, agent used separately
[5] = tested on: human lung carcinoma SKMES; assay: MTT growth inhibitory assay, SKMES
[6] = A-375, Human Melanoma A375, read-out: IC50 growth inhibition, agent used separately
[7] = Human Colon Carcinoma HT29, read-out: IC50 growth inhibition, agent used separately
[8] = Human Lung Carcinoma SKMES, read-out: IC50 growth inhibition, agent used separately

SMILES: CCCn1cc2c(nc(NC(=O)Nc3ccccc3)n3nc(-c4ccco4)nc23)n1 [drawing 9]
% of Rh123 negative cells ([1]; 10 μM): 0.8 ± 0.2%

SMILES: CCCn1cc2c(nc(NC(=O)Nc3ccccc3)n3nc(-c4ccco4)nc23)n1 [drawing 10]
% of Rh123 negative cells ([1]; 10 μM): 1.0 ± 0.2%

SMILES: Cc1ccc(NC(=O)Nc2nc3nn(C)cc3c3nc(-c4ccco4)nn23)cc1 [drawing 11]
% of Rh123 negative cells ([1]; 10 μM): 22.0 ± 1.0%

SMILES: Nc1nc2ccc(Cl)cc2c2nc(-c3ccco3)nn12 [drawing 12, reference compound]
% of Rh123 negative cells ([1]; 70 μM): 87.1 ± 1.0%

SMILES: Nc1nc(NCCc2ccc(O)cc2)nc2nc(-c3ccco3)nn12 [drawing 13, reference compound]
% of Rh123 negative cells ([1]; 70 μM): 93.0 ± 1.1%

IC50 [2, 6]: 0.88 ± 0.19 µg/mL
IC50 [3, 7]: 1.05 ± 0.07 µg/mL
IC50 ([3]; Homo sapiens, HT29, irinotecan HCl 0.04-20 μg/ml, alone, read-out: IC50 of irinotecan HCl, A3 antagonist none): 0.96 µg/mL
IC50 [4]: 1.12 ± 0.29 µg/mL
IC50 ([5]; Homo sapiens, SKMES, irinotecan HCL 0.04-20 μg/ml, alone, read-out: IC50 of irinotecan HCL, A3 antagonist none): 1.17 µg/mL
IC50 [5, 8]: 1.23 ± 0.36 µg/mL
SMILES: CCc1c2c(nc3ccc(OC(=O)N4CCC(N5CCCCC5)CC4)cc13)-c1cc3c(c(=O)n1C2)COC(=O)[C@]3(O)CC [irinotecan HCL, reference compound]

SMILES: O=C1c2c(O)ccc(O)c2C(=O)c2c(NCCNCCO)ccc(NCCNCCO)c21 [mitoxantrone, reference compound]
IC50 ([2]; A-375, A375 cell line, read-out: IC50 value): 0.0032 µg/mL (≈ 7.2 nM)
IC50 ([3]; Homo sapiens, HT29 cell line, read-out: IC50 value): 0.1 µg/mL (≈ 225 nM)
fold HT29 more refractory than A375 ([3]; ratio of IC50 HT29 vs A375): approximately 30 fold

IC50 [2, 6]: 0.0016 µg/mL (≈ 1.97 nM)
IC50 [3, 7]: 0.0019 ± 0.0004 µg/mL (≈ 2.34 nM)
IC50 [4]: 0.0018 ± 0.0008 µg/mL (≈ 2.22 nM)
IC50 ([5]; Homo sapiens, SKMES, vinblastine 0.00001-0.005 μg/ml, alone, read-out: IC50 of vinblastine, A3 antagonist none): 0.0015 µg/mL (≈ 1.85 nM)
IC50 [5, 8]: 0.0019 ± 0.0009 µg/mL (≈ 2.34 nM)
SMILES: CC[C@]1(O)C[C@@H]2CN(CCc3c([nH]c4ccccc34)[C@@](C(=O)OC)(c3cc4c(cc3OC)N(C)[C@H]3[C@@](O)(C(=O)OC)[C@H](OC(C)=O)[C@]5(CC)C=CCN6CC[C@]43[C@@H]65)C2)C1 [vinblastine, reference compound]

From patent publication US20040067932A1 (priority 2002, published 2004)
